# Read-outs that look alike come from different tables or passages of the source. Square brackets hold non-standard residues; d marks the D form. Peptide text beside a SMILES is read from it. pY = N[C@@H](Cc1ccc(OP(=O)(O)O)cc1)C(=O)O
# How the values were obtained:
# DLAR D1HSS D2 = target: T1, DLAR D1HSS D2 (Drosophila melanogaster, UniProt P16621, C1670S); assay: Surface Plasmon Resonance peptide binding, DLAR D1HSS D2; settings: two-site model, read-out: ka
# T1 construct: DLAR 1448-2029; His tag (pET-15b or pET-22b); made in house; host or cells: E. coli BL21(DE3)
# T1 sequence (P16621 1448-2029 C1670S): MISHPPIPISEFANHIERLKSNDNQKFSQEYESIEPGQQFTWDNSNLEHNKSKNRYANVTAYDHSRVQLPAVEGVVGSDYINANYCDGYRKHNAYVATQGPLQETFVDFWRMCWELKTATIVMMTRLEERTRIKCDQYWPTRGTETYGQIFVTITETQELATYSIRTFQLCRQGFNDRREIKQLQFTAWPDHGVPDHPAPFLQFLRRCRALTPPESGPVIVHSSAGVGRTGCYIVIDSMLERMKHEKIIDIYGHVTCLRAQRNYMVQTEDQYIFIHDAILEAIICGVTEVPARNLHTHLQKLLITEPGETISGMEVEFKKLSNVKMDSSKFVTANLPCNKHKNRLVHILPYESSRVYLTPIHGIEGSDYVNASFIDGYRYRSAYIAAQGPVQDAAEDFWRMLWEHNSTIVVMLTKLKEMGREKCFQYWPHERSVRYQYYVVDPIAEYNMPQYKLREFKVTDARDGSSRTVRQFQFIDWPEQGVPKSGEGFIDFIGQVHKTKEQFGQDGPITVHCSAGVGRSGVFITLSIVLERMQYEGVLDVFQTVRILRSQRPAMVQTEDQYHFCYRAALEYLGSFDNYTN
# Method: (§1) The binding of phosphotyrosine peptides to the PTP domains was studied by Surface Plasmon Resonance on a Biacore-2000 instrument (BIAcore, AB). All experiments were conducted at 25°C. DLAR PTP domains were immobilized onto carboxylated dextran CM5 chips (BIAcore AB) using the standard amine coupling procedure as recommended by the manufacturer. Binding and kinetic assays were performed in 10 mM HEPES, pH 8.0, 150 mM NaCl, 10 mM DTT and 3 mM EDTA at a flow rate of 5 µL/min. The peptides were used at concentrations ranging from 50–700 µM. Dissociation was initiated by replacing the analyte with buffer. The association and dissociation curves were monitored for 600 sec. Sensograms were analyzed with BIA-evaluation software version 2 (BIAcore AB). Sensograms for DLAR D1D2, DLAR D1HSSD2 and DLAR D1D2HSS were fitted to two-site binding equations. DLAR D1 and DLAR D2 sensograms were fitted using a single-site binding model.
# DLAR D1 D2HSS = target: T2, DLAR D1 D2HSS (Drosophila melanogaster, UniProt P16621, C1961S); assay: Surface Plasmon Resonance peptide binding, DLAR D1 D2HSS; settings: two-site model, read-out: ka
# T2 construct: DLAR 1448-2029; His tag (pET-15b or pET-22b); made in house; host or cells: E. coli BL21(DE3)
# T2 sequence (P16621 1448-2029 C1961S): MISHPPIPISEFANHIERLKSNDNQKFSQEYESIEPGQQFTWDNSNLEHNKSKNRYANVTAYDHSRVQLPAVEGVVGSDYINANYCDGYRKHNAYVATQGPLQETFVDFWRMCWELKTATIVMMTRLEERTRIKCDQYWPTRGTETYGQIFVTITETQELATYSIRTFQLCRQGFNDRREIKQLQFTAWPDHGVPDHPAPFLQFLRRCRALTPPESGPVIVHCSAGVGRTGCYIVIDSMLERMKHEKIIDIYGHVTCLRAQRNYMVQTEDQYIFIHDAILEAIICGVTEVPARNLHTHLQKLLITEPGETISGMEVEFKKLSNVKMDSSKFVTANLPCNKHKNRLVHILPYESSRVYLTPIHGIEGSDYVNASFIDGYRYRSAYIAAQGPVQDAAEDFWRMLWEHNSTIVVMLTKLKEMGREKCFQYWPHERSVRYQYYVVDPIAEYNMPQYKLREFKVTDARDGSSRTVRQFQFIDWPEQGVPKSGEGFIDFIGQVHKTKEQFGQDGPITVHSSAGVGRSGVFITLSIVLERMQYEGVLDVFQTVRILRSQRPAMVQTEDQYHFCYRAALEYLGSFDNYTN
# Method: as §1
# [1] = system: PTP99A D1 active site cysteine to serine mutant; assay: Phosphatase assay using pNPP, PTP99A D1 active site Cys to Ser mutant; type: biochemical, Drosophila melanogaster; settings: active site cysteine to serine in D1
# Source text: Cosmids containing the genes encoding RPTPs DLAR and PTP99A were a kind gift from Prof. Kai Zinn (Caltech). The PTP domains of PTP99A and DLAR were PCR amplified and ligated between the NheI and XhoI restriction sites of the bacterial expression vectors pET-15b and pET-22b. The active site mutants (with the nucleophilic cysteines in the PTP domains of DLAR and PTP99A mutated to serines) were obtained by using a single primer approach. An XbaI site was incorporated in the primers to aid screening of mutants. All clones were confirmed by sequencing (Macrogen Inc.). The details of the expression constructs are compiled in Table S1 and Figure 1a.
# Phosphatase activity of the recombinant PTP domains was determined by using para-Nitrophenylphosphate (pNPP), a small molecule generic substrate, as well as phosphotyrosine containing peptides. The pNPP assay was performed as reported previously, with a modification in the buffer composition (25 mM Citrate, Glycine and HEPES (CGH), pH 6.5, 100 mM NaCl and 2 mM DTT). Phosphatase activity with the phosphotyrosine peptides was ascertained by the malachite green reaction as described for PTPs previously. […] The reaction was stopped by the addition of the Biomol Green reagent (Enzo Life Sciences) and the colour developed after 20 min was quantified at 650 nm. […]
# [2] = pH 8, SPR Biacore-2000, 25°C, 10 mM HEPES pH 8.0, 150 mM NaCl, 10 mM DTT, 3 mM EDTA, peptides 50–700 µM, first binding site
# [3] = pH 8, SPR, 25°C, pH 8.0, second binding site
Structure (SMILES),kon (DLAR D1HSS D2; [2]),kon (DLAR D1HSS D2; [3]),kon (DLAR D1 D2HSS; [2]),kon (DLAR D1 D2HSS; [3]),PTPase activity [1]
CC(C)C[C@H](NC(=O)[C@H](C)NC(=O)CNC(=O)[C@H](Cc1ccc(OP(=O)(O)O)cc1)NC(=O)[C@H](CC(=O)O)NC(=O)[C@@H]1CCCN1C(=O)[C@H](CCC(=O)O)NC(=O)[C@H](C)NC(=O)[C@@H](N)[C@@H](C)O)C(=O)N[C@@H](Cc1ccc(O)cc1)C(=O)N[C@@H](CCC(=O)O)C(=O)O [Cuticle peptide] (H-TAEPD[pY]GALYE-OH),74.7 ± 2.41 M⁻¹ s⁻¹,28800 ± 8e+06 M⁻¹ s⁻¹,51.7 ± 0.61 M⁻¹ s⁻¹,1.37 ± 0.4 M⁻¹ s⁻¹,–
"O=[N+]([O-])c1ccc(OP(=O)(O)O)cc1 [pNPP, para-Nitrophenylphosphate]",–,–,–,–,inactive enzyme

# Reference: PMC3172300, “Modulation of Catalytic Activity in Multi-Domain Protein Tyrosine Phosphatases” (PLoS ONE, 2011)
